According to paper PMC2642990, “The Glycogen-Binding Domain on the AMPK β Subunit Allows the Kinase to Act as a Glycogen Sensor” (Cell Metabolism, 2009):

Assays:
[1] = system: phosphorylation of Thr-172 by CaMKKβ; experiment: phosphorylation of Thr-172 of rat liver AMPK by CaMKKβ; type: biochemical; conditions: 1 mM oligosaccharide
Description: (§1) Figure 7 Effect of Oligosaccharide Number 5, See Figure 6, on Dephosphorylation of AMPK by PP2Cα and on Phosphorylation by CaMKKβ and LKB1 (A) Effect of oligosaccharide on dephosphorylation by PP2Cα. Rat liver AMPK was incubated with PP2Cα in the presence and absence of 1 mM oligosaccharide; at various times, levels of total α subunit and phosphorylation on Thr-172 were assessed by western blotting. (B) Quantification of results as in (A); means ± SEM of two experiments. (C) Effect of oligosaccharide on phosphorylation by CaMKKβ. Rat liver AMPK was dephosphorylated using PP1, okadaic acid was added to inhibit the phosphatase, and the protein was incubated with MgATP and CaMKKβ in the presence and absence of 1 mM oligosaccharide. At various times, levels of total α subunit and of phosphorylation on Thr-172 were assessed by western blotting. (D) Quantification of results as in (C); means ± SEM (n = 2). (E) Time course of effect of oligosaccharide on phosphorylation by LKB1, performed as in (C) but with LKB1 in place of CaMKKβ. (F) Effect of oligosaccharide on phosphorylation of a synthetic peptide substrate of LKB1 (mean ± SD; n = 2). (G) Inhibition of AMPK by bovine liver glycogen, a phosphorylase limit dextrin, and a mock-treated sample. IC50 values were determined as in Figure 2A and curves generated from the best-fit parameters. […]

[2] = system: phosphorylation of Thr-172 by LKB1; experiment: phosphorylation of Thr-172 of rat liver AMPK by LKB1; type: biochemical; conditions: 1 mM oligosaccharide
Description: as §1

[3] = molecular target: T1, LKB1 (Homo sapiens, UniProt Q15831); experiment: phosphorylation of synthetic peptide substrate LKBtide by LKB1; type: biochemical; conditions: 1 mM oligosaccharide
T1 sequence (Q15831 1-433): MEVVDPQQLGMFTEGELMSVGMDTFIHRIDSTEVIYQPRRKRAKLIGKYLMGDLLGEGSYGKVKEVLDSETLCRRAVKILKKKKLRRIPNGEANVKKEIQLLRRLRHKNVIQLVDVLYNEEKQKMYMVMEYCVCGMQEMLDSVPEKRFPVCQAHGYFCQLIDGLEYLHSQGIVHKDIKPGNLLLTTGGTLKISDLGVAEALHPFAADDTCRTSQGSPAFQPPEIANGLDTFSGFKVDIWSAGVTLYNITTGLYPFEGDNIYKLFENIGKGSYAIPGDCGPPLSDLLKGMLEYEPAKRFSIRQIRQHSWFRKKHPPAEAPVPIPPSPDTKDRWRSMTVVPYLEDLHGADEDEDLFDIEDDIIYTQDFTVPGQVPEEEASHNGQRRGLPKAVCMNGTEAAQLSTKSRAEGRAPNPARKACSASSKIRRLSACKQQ
T1 sequence (Q7RTN6 1-431 partner): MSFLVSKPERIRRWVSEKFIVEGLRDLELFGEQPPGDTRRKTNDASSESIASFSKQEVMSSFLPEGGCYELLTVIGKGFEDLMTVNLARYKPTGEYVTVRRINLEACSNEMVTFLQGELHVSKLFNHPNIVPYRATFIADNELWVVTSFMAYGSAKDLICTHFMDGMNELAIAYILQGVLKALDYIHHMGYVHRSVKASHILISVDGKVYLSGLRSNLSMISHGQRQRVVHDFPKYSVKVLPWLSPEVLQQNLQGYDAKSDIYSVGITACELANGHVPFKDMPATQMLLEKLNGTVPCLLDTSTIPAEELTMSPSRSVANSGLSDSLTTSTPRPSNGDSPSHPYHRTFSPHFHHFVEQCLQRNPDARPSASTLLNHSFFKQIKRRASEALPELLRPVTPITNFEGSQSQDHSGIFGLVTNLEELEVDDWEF
T1 sequence (Q9Y376 1-341 partner): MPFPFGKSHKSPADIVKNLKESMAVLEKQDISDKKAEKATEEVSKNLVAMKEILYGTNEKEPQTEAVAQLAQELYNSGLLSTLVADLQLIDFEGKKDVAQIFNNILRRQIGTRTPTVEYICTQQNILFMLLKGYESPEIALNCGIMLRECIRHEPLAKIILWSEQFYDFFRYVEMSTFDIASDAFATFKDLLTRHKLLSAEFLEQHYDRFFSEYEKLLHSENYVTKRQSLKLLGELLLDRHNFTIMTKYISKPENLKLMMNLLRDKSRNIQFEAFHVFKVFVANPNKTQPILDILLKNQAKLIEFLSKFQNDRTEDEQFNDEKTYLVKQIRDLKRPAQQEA
From the text: (§2) The inhibitory effects observed to this point represent allosteric inhibition, i.e., direct effects on the activity of the AMPK kinase domain of carbohydrate binding at a different site, i.e., the GBD on the β subunit. It was important to establish whether carbohydrates might also affect phosphorylation and dephosphorylation by upstream kinases and phosphatases. […] To confirm that the latter was not an effect on LKB1, we tested the effect of the oligosaccharide on phosphorylation of a synthetic peptide substrate, i.e., LKBtide ([Lizcano et al., 2004]).
Figure 7 Effect of Oligosaccharide Number 5, See Figure 6, on Dephosphorylation of AMPK by PP2Cα and on Phosphorylation by CaMKKβ and LKB1 (A) Effect of oligosaccharide on dephosphorylation by PP2Cα. Rat liver AMPK was incubated with PP2Cα in the presence and absence of 1 mM oligosaccharide; at various times, levels of total α subunit and phosphorylation on Thr-172 were assessed by western blotting. (B) Quantification of results as in (A); means ± SEM of two experiments. (C) Effect of oligosaccharide on phosphorylation by CaMKKβ. […] At various times, levels of total α subunit and of phosphorylation on Thr-172 were assessed by western blotting. (D) Quantification of results as in (C); means ± SEM (n = 2). […] IC50 values were determined as in Figure 2A and curves generated from the best-fit parameters. […]

[4] = system: dephosphorylation of purified rat liver AMPK by protein phosphatase-2Cα (PPM1A); experiment: dephosphorylation of rat liver AMPK by PP2Cα, western blotting of pThr-172; type: biochemical; conditions: 1 mM oligosaccharide
Description: as §1

[5] = system: dephosphorylation of AMPK by protein phosphatase-1; experiment: dephosphorylation of AMPK by catalytic subunit of protein phosphatase-1; type: biochemical, rat; conditions: data not shown
From the text: as §2

For `CO[C@H]1O[C@H](CO[C@H]2O[C@H](CO)[C@@H](O[C@H]3O[C@H](CO)[C@@H](O)[C@H](O)[C@H]3O)[C@H](O)[C@H]2O)[C@@H](O)[C@H](O)[C@H]1O` [Oligosaccharide 5, Glcα1→4Glcα1→6Glcα-OMe], the “inhibition of phosphorylation of Thr-172 by CaMKKβ” value [1] was “marked inhibition”, the “extent of inhibition of phosphorylation of the rat liver αβγ complex by LKB1” value ([2]; Figure 7E) was “essentially complete” and the “inhibition of phosphorylation of Thr-172 by LKB1” value ([2]; time course) was “marked inhibition”. The “inhibition of LKBtide phosphorylation” value [3] was “no significant inhibition”, the “effect on dephosphorylation by PP2Cα” value [4] was “no significant effect” and the “effect on dephosphorylation by protein phosphatase-1” value [5] was “negative results”.
